The text below walks through data of ChEMBL document CHEMBL3879905, “Methods of using macrocyclic modulators of the ghrelin receptor” (2013).

Calls of active or inactive are those of the source. The calls are words filed in the database; no cut-off is given here. Bounds are passed on as bounds.

One experiment is filed under the species Homo sapiens. In words: Selectivity for human GSHR1a over human motilin receptor.
The subject of experiment [1] is Rattus norvegicus. In words: Induction of gastric emptying of high caloric meal in Wistar rat gastroparesis model at 0.08 to […] mg/kg, iv after 60 mins. Type of experiment: functional, organism-based. To be noted: Stomach.
Experiment [2] deals with Rattus norvegicus. In words: Gastrokinetic activity in Wistar rat gastroparesis model at 100 ug/kg, iv administered immediately post phenol red containing methylcellulose meal intake measured after 15 mins by colorimetric method relative to vehicle-treated control. Type of experiment: functional, organism-based.
Experiment [3] addresses Growth hormone secretagogue receptor type 1 (Homo sapiens, UniProt Q92847). In words: Displacement of [125I]-Ghrelin from human GSHR1a transfected in HEK293 cell membranes after 30 mins by microplate scintillation and luminescence counting method.
Experiment [4] has as its system Rattus norvegicus. In words: Induction of gastric emptying of solid meal in iv dosed Wistar rat gastroparesis model administered immediately post methylcellulose meal containing phenol red intake measured after 15 mins by colorimetric method. Type of experiment: functional, organism-based. To be noted: Stomach.
In experiment [5] the test system is Rattus norvegicus. In words: Reversal of morphine-induced intestinal transit delaying in iv dosed Sprague-Dawley rat postoperative ileus model at 100 ug/kg, iv administered prior to 99mTC labeled methylcellulose meal intake measured after 15 mins by gamma counting method. Type of experiment: functional, organism-based.
Experiment [6] concerns Rattus norvegicus. In words: Induction of gastric emptying of solid meal in Sprague-Dawley rat postoperative ileus model at 100 to 300 ug/kg, iv administered prior to 99mTC labeled methylcellulose meal intake measured after 15 mins by gamma counting method relative to vehicle-treated control. The format is functional, organism-based. To be noted: Stomach.
In experiment [7] the test system is Rattus norvegicus. In words: Induction of gastric emptying of solid meal in Wistar rat gastroparesis model at 30 ug/kg, iv administered immediately post methylcellulose meal containing phenol red intake measured after 15 mins by colorimetric method relative to vehicle-treated control. The following applies: Stomach. The format is functional, organism-based.
For experiment [8], the system named is Rattus norvegicus. In words: Induction of gastric emptying of solid meal in Wistar rat gastroparesis model at 100 ug/kg, iv administered immediately post phenol red containing methylcellulose meal intake measured after 15 mins by colorimetric method relative to vehicle-treated control. The format is functional, Stomach.

Sequence of Growth hormone secretagogue receptor type 1 (Q92847 whole entry): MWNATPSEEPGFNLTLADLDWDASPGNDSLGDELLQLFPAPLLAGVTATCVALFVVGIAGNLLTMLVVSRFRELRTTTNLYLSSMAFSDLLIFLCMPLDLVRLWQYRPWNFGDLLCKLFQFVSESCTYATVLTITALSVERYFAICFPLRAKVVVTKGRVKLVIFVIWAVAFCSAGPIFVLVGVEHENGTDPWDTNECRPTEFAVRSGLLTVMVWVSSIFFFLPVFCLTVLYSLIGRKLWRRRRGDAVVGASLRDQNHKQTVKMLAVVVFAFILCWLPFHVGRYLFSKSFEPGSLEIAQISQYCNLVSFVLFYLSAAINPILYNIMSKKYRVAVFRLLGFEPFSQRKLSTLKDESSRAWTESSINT

With `CCC[C@@H]1NCCOc2ccccc2CCCNC(=O)[C@@H](Cc2ccccc2)NC(=O)[C@H](C)N(C)C1=O`, in the experiment listed under Homo sapiens, the Selectivity ratio was determined as 3010.
In the case of `C[C@@H]1C(=O)N[C@H](Cc2ccc(O)c(C(C)(C)C)c2)C(=O)NCCCc2ccccc2OCCN[C@@H](C2CC2)C(=O)N1C`, the Selectivity ratio in the experiment filed under Homo sapiens was 21.
In the case of `CC(C)C[C@@H]1NCCOc2ccccc2/C=C\CNC(=O)[C@H](Cc2cccc(Cl)c2)NC(=O)C2(CCCC2)NC1=O`, the result with Rattus norvegicus [1] was Active. Also, in the experiment listed under Homo sapiens, the Selectivity ratio is 1080.
Turning to `C[C@@H]1CN[C@@H](C2CC2)C(=O)N(C)[C@H](C)C(=O)N[C@H](Cc2ccc(F)cc2)C(=O)NCCCc2ccc(F)cc2O1`, the result with Rattus norvegicus [1] was Active.
As to `CC(C)[C@@H]1NCCOc2ccccc2/C=C\CNC(=O)[C@H](Cc2ccccc2)NC(=O)[C@@H](C)N(C)C1=O`, the Selectivity ratio in the experiment listed under Homo sapiens was > 1700.
As to `CCC(C)[C@H]1NCCOc2ccccc2[C@H]2C[C@@H]2CNC(=O)[C@H](Cc2cccc(Cl)c2)NC(=O)C2(CCCC2)NC1=O` (stereo not given in full), in the experiment filed under Homo sapiens, the Selectivity ratio is 400.
On the same count and under the same terms, under `CC[C@H](C)[C@@H]1NCCOc2ccccc2CCCNC(=O)[C@@H](Cc2ccccc2)NC(=O)[C@@H](C)N(CC)C1=O` stands 3700; under `CC[C@H](C)[C@@H]1NCCOc2ccc(F)cc2CCCNC(=O)[C@H](Cc2cccc(Cl)c2)NC(=O)C2(CCCC2)NC1=O`, 74; under `C[C@H]1C(=O)N[C@@H](Cc2ccc(F)cc2)C(=O)NC[C@H]2C[C@@H]2c2ccccc2OCCN[C@H](C2CC2)C(=O)N1C`, 450.
On the same count and under the same terms, to `C[C@@H]1C(=O)N[C@H](Cc2ccc(F)cc2)C(=O)NCCCc2cc(NS(C)(=O)=O)ccc2OCCN[C@@H](C2CC2)C(=O)N1C` belongs 250; to `CC[C@H](C)[C@@H]1NCCOc2ccccc2CCCNC(=O)[C@@H](Cc2ccc(OC)cc2)NC(=O)[C@@H](C)N(C)C1=O`, > 7100; to `CC[C@H](C)[C@@H]1NCCOc2ccccc2/C=C\CNC(=O)[C@@H](Cc2ccccc2)NC(=O)[C@@H](C)N(C)C1=O`, > 3300.
With `CC[C@H](C)[C@@H]1NCCOc2ccc(C(=O)O)cc2CCCNC(=O)[C@@H](Cc2ccccc2)NC(=O)[C@@H](C)N(C)C1=O`, in the experiment filed under Homo sapiens, the Selectivity ratio was 100.
Same read-out and setting: under `CC[C@H](C)[C@@H]1NCCOc2ccccc2CCCNC(=O)[C@@H](Cc2cccs2)NC(=O)[C@@H](C)N(C)C1=O` stands > 1000.
On to `C[C@@H]1C(=O)N[C@H](Cc2ccccc2)C(=O)NCCCc2ccc3c(c2)OC(CC3)CN[C@@H](C2CC2)C(=O)N1C` (stereo not given in full), for which, in the experiment with Rattus norvegicus [1], the outcome was Active.
In the case of `CC(C)C[C@@H]1NCCOc2ccccc2/C=C\CNC(=O)[C@H](Cc2ccccc2Cl)NC(=O)C2(CCCC2)NC1=O`, in the experiment filed under Homo sapiens, the Selectivity ratio stood at 1040.
Regarding `C[C@@H]1C(=O)N[C@H](Cc2ccc(Cl)cc2Cl)C(=O)NCCCc2ccccc2OCCN[C@@H](C2CC2)C(=O)N1C`, the Selectivity ratio in the experiment listed under Homo sapiens was > 5500.
Same read-out and setting: to `CC[C@H](C)[C@@H]1NCCOc2ccccc2CCCNC(=O)[C@@H](Cc2ccccc2Cl)NC(=O)[C@@H](C)N(C)C1=O` belongs 30000.
Regarding `C[C@@H]1CN[C@@H](C2CC2)C(=O)N(C)[C@H](C)C(=O)N[C@H](Cc2ccc(F)cc2)C(=O)NCCCc2ccccc2O1`, the result with Rattus norvegicus [2], in the experiment with Rattus norvegicus [1] and in the experiment with Rattus norvegicus [6] was Active. The %max in experiment [3] is 96%. Moreover, the Activity entry with Rattus norvegicus [4] and in the experiment on Rattus norvegicus [5] was “Dose-dependent effect” throughout.
With `CC[C@H](C)[C@@H]1NC[C@H](C)Oc2ccccc2CCCNC(=O)[C@H](Cc2cccc(Cl)c2)NC(=O)C2(CCCC2)NC1=O`, the Selectivity ratio in the experiment filed under Homo sapiens came to 300.
Same read-out and setting: under `CC1COc2ccccc2CCCNC(=O)[C@@H](Cc2ccc(F)cc2)NC(=O)[C@@H](C)N(C)C(=O)[C@H](C2CC2)N1` (stereo not given in full) stands 1700; under `CCC[C@@H]1NCCOc2ccccc2CCCNC(=O)[C@@H](Cc2ccccc2)NC(=O)CN(C)C1=O`, 304; under `CC[C@H](C)[C@@H]1NCCOc2ccccc2CCCNC(=O)[C@@H](Cc2ccccc2)NC(=O)[C@@H](C)N(C)C1=O`, > 100.
Still for that read-out and setting: to `C[C@@H]1C(=O)N[C@H](Cc2ccccc2)C(=O)NCCCc2ccccc2OCCN[C@@H](C(C)(C)C)C(=O)N1C` belongs 4300; to `CCC[C@@H]1NCCOc2ccccc2CCCNC(=O)[C@@H](Cc2ccc(O)cc2)NC(=O)CN(C)C1=O`, > 100.
Regarding `C[C@@H]1C(=O)N[C@H](Cc2ccc(Cl)cc2)C(=O)NCCCc2ccccc2OCCN[C@@H](C2CC2)C(=O)N1C`, the result with Rattus norvegicus [1] was Active.
With `CC[C@H](C)[C@@H]1NCCOc2ccccc2CCCNC(=O)[C@@H](Cc2ccc(Cl)cc2)NC(=O)[C@@H](C)N(C)C1=O`, the result with Rattus norvegicus [2], with Rattus norvegicus [7] and with Rattus norvegicus [1] was Active. In addition, the Activity with Rattus norvegicus [8] is recorded as 30 - 39%. In the experiment listed under Homo sapiens, the Selectivity ratio was determined as 28000.
Take `C[C@@H]1CN[C@@H](C2CC2)C(=O)N(C)[C@H](C)C(=O)N[C@H](Cc2ccc(Cl)cc2)C(=O)NCCCc2ccccc2O1`: the result with Rattus norvegicus [1] was Active.
For the molecule `CC[C@H](C)[C@@H]1NCCCc2ccccc2/C=C\CNC(=O)[C@@H](Cc2ccccc2)NC(=O)[C@@H](C)N(C)C1=O`, in the experiment listed under Homo sapiens, the Selectivity ratio is > 800.
Still for that read-out and setting: under `CC(C)C[C@@H]1NCCOc2ccccc2/C=C\CNC(=O)[C@H](Cc2ccccc2)NC(=O)C2(CCCC2)NC1=O` stands 200; under `CCCC[C@@H]1NCCOc2ccccc2CCCNC(=O)[C@@H](Cc2ccccc2)NC(=O)CN(C)C1=O`, 142.
Still for that read-out and setting: under `CC[C@H](C)[C@@H]1NCCOc2ccccc2CCCNC(=O)[C@@H](Cc2ccc(F)cc2)NC(=O)[C@@H](C)N(C)C1=O` stands > 7700.
On the same count and under the same terms, under `C[C@H]1NC(=O)C2(CCCC2)NCCOc2ccccc2/C=C\CNC(=O)[C@H](Cc2cccc(Cl)c2)NC1=O` stands 450.
Take `CC[C@H](C)[C@@H]1NCCOc2ccccc2CCCNC(=O)[C@@H](Cc2cccc(Cl)c2)NC(=O)[C@@H](C)N(C)C1=O`: in the experiment listed under Homo sapiens, the Selectivity ratio was determined as 3040.
On to `CC[C@H](C)[C@@H]1NCCOc2ccccc2CCCNC(=O)[C@@H](Cc2ccc3ccccc3c2)NC(=O)[C@@H](C)N(C)C1=O`, for which the Selectivity ratio in the experiment listed under Homo sapiens was found to be 4900.
With `CC[C@H](C)[C@@H]1NCCOc2ccccc2CCCNC(=O)[C@@H](Cc2cccc3ccccc23)NC(=O)[C@@H](C)N(C)C1=O`, in the experiment filed under Homo sapiens, the Selectivity ratio stood at 13000.
Regarding `C[C@@H]1CN[C@@H](C2CC2)C(=O)N(C)[C@H](C)C(=O)N[C@H](Cc2ccc(Cl)cc2)C(=O)NCCCc2ccc(F)cc2O1`, the result in the experiment on Rattus norvegicus [1] was Active.
Take `CC(C)C1NCCOc2ccccc2/C=C\CNC(=O)C(Cc2ccccc2)NC(=O)C(C)N(C)C1=O` (stereo not given): the Selectivity ratio in the experiment listed under Homo sapiens was > 1700.
Take `CCC[C@@H]1NCCOc2ccccc2CCCNC(=O)[C@@H](Cc2c[nH]c3ccccc23)NC(=O)CN(C)C1=O`: the Selectivity ratio in the experiment listed under Homo sapiens turned out to be 71.
Turning to `CCC[C@@H]1NCCOc2ccccc2/C=C\CNC(=O)[C@@H](Cc2ccccc2)NC(=O)[C@@H](C)N(C)C1=O`, the Selectivity ratio in the experiment listed under Homo sapiens amounted to 3400.
`C[C@@H]1C(=O)N[C@H](Cc2ccc(F)cc2)C(=O)NCCCc2ccc(F)cc2OCCN[C@@H](C2CC2)C(=O)N1C`: the outcome in the experiment with Rattus norvegicus [1] was Active. Besides, the Selectivity ratio in the experiment filed under Homo sapiens is 2500.
With `CC[C@H](C)[C@@H]1NCCCCCCCCNC(=O)[C@@H](Cc2ccccc2)NC(=O)[C@@H](C)N(C)C1=O`, the Selectivity ratio in the experiment filed under Homo sapiens worked out at 28.
Regarding `CC[C@H](C)[C@@H]1NCCOc2ccccc2/C=C\CNC(=O)[C@H](Cc2ccc(Cl)cc2)NC(=O)C2(CCOC2)NC1=O` (stereo not given in full), in the experiment listed under Homo sapiens, the Selectivity ratio was > 159.
Same read-out and setting: under `C[C@@H]1C(=O)N[C@H](Cc2ccccc2)C(=O)NCCCc2ccccc2OCCN[C@@H](C2CC2)C(=O)N1C` stands 2500; under `C[C@@H]1C(=O)N[C@H](Cc2ccc(F)cc2)C(=O)NCCCc2ncccc2OCCN[C@@H](C2CC2)C(=O)N1C`, 714.
For the molecule `CC1(C)NC(=O)C2(CCCC2)NCCOc2ccccc2/C=C\CNC(=O)[C@H](Cc2cccc(Cl)c2)NC1=O`, in the experiment listed under Homo sapiens, the Selectivity ratio worked out at 346.
For `CC(C)[C@@H]1NCCOc2ccccc2CCCNC(=O)[C@H](Cc2ccccc2)NC(=O)C2(CCCC2)NC1=O`, the Selectivity ratio in the experiment listed under Homo sapiens amounted to 117.
Turning to `O=C1NC/C=C/c2ccccc2OCCNC2(CCCC2)C(=O)NC2(CCCC2)C(=O)N[C@H]1Cc1ccccc1`, the Selectivity ratio in the experiment listed under Homo sapiens was 222.
Still for that read-out and setting: under `CC[C@H](C)[C@@H]1NCCCCCCCCNC(=O)[C@H](Cc2cccc(Cl)c2)NC(=O)C2(CCCC2)NC1=O` stands 35.
